In ChEMBL document CHEMBL1255224, “Design and synthesis of prolylcarboxypeptidase (PrCP) inhibitors to validate PrCP as a potential target for obesity” (J Med Chem, 2010):

Test system: not listed separately
Test: Clearance in mouse
Type: ADME, organism-based
Conditions: in vivo
`COc1ccc(C[C@H](NC(=O)C(C)(C)N)C(=O)N2CC[C@H]2c2nc3cc(Cl)c(Cl)cc3[nH]2)cc1` showed a clearance of 25 mL/min/kg.
For `CC(C)(O)C(=O)N[C@@H](Cc1ccc(-c2ccccc2)cc1)C(=O)N1CCC[C@H]1c1ncc(C(C)(C)C)[nH]1`, the clearance was 117 mL/min/kg.
For `N#Cc1cccc(-c2ccc(CCC(=O)N3C[C@H](O)C[C@H]3c3nc(-c4cccc(Cl)c4)c[nH]3)cc2)c1`, the clearance was 82 mL/min/kg.
With `C[C@@H](c1ccc(-c2ccccc2)cc1)[C@H](NC(=O)C(C)(C)N)C(=O)N1CCC[C@H]1c1nc2cc(Cl)c(Cl)cc2[nH]1` the clearance was 23 mL/min/kg.
Compound `Cc1cccc2[nH]c([C@@H]3[C@@H]4C[C@@H]4CN3C(=O)COc3ccc(-c4ccccc4)cc3)nc12` has a clearance of 41 mL/min/kg.
For `Cn1cc(-c2ccc(C[C@H](NC(=O)C(C)(C)N)C(=O)N3CCC[C@H]3c3nc4cc(Cl)c(Cl)cc4[nH]3)cc2)ccc1=O`, the clearance was 70 mL/min/kg.
Compound `CC(C)(Cc1ccc(-c2cccc(Cl)c2Cl)cc1)C(=O)N1CC(F)(F)C[C@H]1c1ncc(-c2cccc(Br)c2)[nH]1` has a clearance of 15 mL/min/kg.
In the case of `CC(C)(CN)C(=O)N[C@@H](Cc1ccc(-c2ccccc2)cc1)C(=O)N1CCC[C@H]1c1nc2cc(Cl)c(Cl)cc2[nH]1`, the clearance is reported as 23 mL/min/kg.
With `CC(C)(Cc1ccc(-c2ccccc2)cc1)C(=O)N1CCC[C@H]1c1nc(-c2cccc(F)c2)c[nH]1` the clearance was 92 mL/min/kg.

Test system: not listed separately
Test: Volume of distribution in mouse
Type: ADME, organism-based
Conditions: in vivo
`COc1ccc(C[C@H](NC(=O)C(C)(C)N)C(=O)N2CC[C@H]2c2nc3cc(Cl)c(Cl)cc3[nH]2)cc1` gave a Vd of 2.2 L/kg.
`CC(C)(O)C(=O)N[C@@H](Cc1ccc(-c2ccccc2)cc1)C(=O)N1CCC[C@H]1c1ncc(C(C)(C)C)[nH]1` gave a Vd of 2.9 L/kg.
Compound `N#Cc1cccc(-c2ccc(CCC(=O)N3C[C@H](O)C[C@H]3c3nc(-c4cccc(Cl)c4)c[nH]3)cc2)c1` has a Vd of 2.2 L/kg.
`C[C@@H](c1ccc(-c2ccccc2)cc1)[C@H](NC(=O)C(C)(C)N)C(=O)N1CCC[C@H]1c1nc2cc(Cl)c(Cl)cc2[nH]1` gave a Vd of 4.4 L/kg.
For `Cc1cccc2[nH]c([C@@H]3[C@@H]4C[C@@H]4CN3C(=O)COc3ccc(-c4ccccc4)cc3)nc12`, the Vd was 2.3 L/kg.
With `Cn1cc(-c2ccc(C[C@H](NC(=O)C(C)(C)N)C(=O)N3CCC[C@H]3c3nc4cc(Cl)c(Cl)cc4[nH]3)cc2)ccc1=O` the Vd was 14 L/kg.
Work on `CC(C)(Cc1ccc(-c2cccc(Cl)c2Cl)cc1)C(=O)N1CC(F)(F)C[C@H]1c1ncc(-c2cccc(Br)c2)[nH]1` yielded a Vd of 4 L/kg.
In the case of `CC(C)(CN)C(=O)N[C@@H](Cc1ccc(-c2ccccc2)cc1)C(=O)N1CCC[C@H]1c1nc2cc(Cl)c(Cl)cc2[nH]1`, the Vd is reported as 7.9 L/kg.
For `CC(C)(Cc1ccc(-c2ccccc2)cc1)C(=O)N1CCC[C@H]1c1nc(-c2cccc(F)c2)c[nH]1`, the Vd was 8.8 L/kg.

Test system: Brain
Test: Drug level in C57BL/6NT PrCP knock out mouse brain at 100 mg/kg, po
Type: ADME, organism-based
Design: dose 100 mg/kg, route oral
Conditions: in vivo, read-out: Activity
Compound `C[C@@H](c1ccc(-c2ccccc2)cc1)[C@H](NC(=O)C(C)(C)N)C(=O)N1CCC[C@H]1c1nc2cc(Cl)c(Cl)cc2[nH]1` has a concentration of 40 nM.

Test system: Blood
Test: Drug level in C57BL/6NT PrCP knock out mouse blood at 100 mg/kg, po
Type: ADME, organism-based
Design: dose 100 mg/kg, route oral
Conditions: in vivo, read-out: Activity
With `C[C@@H](c1ccc(-c2ccccc2)cc1)[C@H](NC(=O)C(C)(C)N)C(=O)N1CCC[C@H]1c1nc2cc(Cl)c(Cl)cc2[nH]1` the concentration was 430 nM.

Molecular target: T1, Lysosomal Pro-X carboxypeptidase (Mus musculus, UniProt Q7TMR0)
T1 sequence (Q7TMR0 whole entry): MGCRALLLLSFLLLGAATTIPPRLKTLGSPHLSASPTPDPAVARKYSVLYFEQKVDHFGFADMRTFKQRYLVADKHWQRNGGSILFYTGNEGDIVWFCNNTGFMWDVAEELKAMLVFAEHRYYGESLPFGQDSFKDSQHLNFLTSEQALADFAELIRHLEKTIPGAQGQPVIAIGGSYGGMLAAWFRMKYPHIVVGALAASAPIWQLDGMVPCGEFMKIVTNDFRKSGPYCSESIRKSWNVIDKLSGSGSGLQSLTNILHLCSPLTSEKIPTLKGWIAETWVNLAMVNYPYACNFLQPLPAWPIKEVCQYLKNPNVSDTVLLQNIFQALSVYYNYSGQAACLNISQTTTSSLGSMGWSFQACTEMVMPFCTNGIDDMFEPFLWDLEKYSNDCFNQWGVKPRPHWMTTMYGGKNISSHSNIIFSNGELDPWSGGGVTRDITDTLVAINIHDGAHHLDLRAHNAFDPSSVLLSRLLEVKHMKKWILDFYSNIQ
Test: Inhibition of mouse PrCP by FRET in presence of 1% mouse serum albumin
Conditions: not given
`COc1ccc(C[C@H](NC(=O)C(C)(C)N)C(=O)N2CC[C@H]2c2nc3cc(Cl)c(Cl)cc3[nH]2)cc1` showed an IC50 of 3320 nM.
`CC(C)(O)C(=O)N[C@@H](Cc1ccc(-c2ccccc2)cc1)C(=O)N1CCC[C@H]1c1ncc(C(C)(C)C)[nH]1` gave an IC50 of 15 nM.
`C[C@@H](c1ccc(-c2ccccc2)cc1)[C@H](NC(=O)C(C)(C)N)C(=O)N1CCC[C@H]1c1nc2cc(Cl)c(Cl)cc2[nH]1` showed an IC50 of 8 nM.

Test system: Mus musculus
Test: Antiobesity activity against C57BL/6NT mouse overexpressing PrCP assessed as reduction in body weight at 100 mg/kg, po
Type: functional
Design: scale not given: the % may be the effect or the level left
Conditions: not given
Work on `C[C@@H](c1ccc(-c2ccccc2)cc1)[C@H](NC(=O)C(C)(C)N)C(=O)N1CCC[C@H]1c1nc2cc(Cl)c(Cl)cc2[nH]1` yielded an Activity of 4.9%.

Molecular target: T1, Lysosomal Pro-X carboxypeptidase
Test: Inhibition of mouse PrCP by FRET
Conditions: not given
Work on `COc1ccc(C[C@H](NC(=O)C(C)(C)N)C(=O)N2CC[C@H]2c2nc3cc(Cl)c(Cl)cc3[nH]2)cc1` yielded an IC50 of 251 nM.
For `CC(C)(O)C(=O)N[C@@H](Cc1ccc(-c2ccccc2)cc1)C(=O)N1CCC[C@H]1c1ncc(C(C)(C)C)[nH]1`, the IC50 was 16 nM.
`C[C@@H](c1ccc(-c2ccccc2)cc1)[C@H](NC(=O)C(C)(C)N)C(=O)N1CCC[C@H]1c1nc2cc(Cl)c(Cl)cc2[nH]1` gave an IC50 of 2 nM.

Test system: not listed separately
Test: Half life in mouse
Type: ADME, organism-based
Conditions: in vivo
With `COc1ccc(C[C@H](NC(=O)C(C)(C)N)C(=O)N2CC[C@H]2c2nc3cc(Cl)c(Cl)cc3[nH]2)cc1` the half-life was 1.4 h.
`CC(C)(O)C(=O)N[C@@H](Cc1ccc(-c2ccccc2)cc1)C(=O)N1CCC[C@H]1c1ncc(C(C)(C)C)[nH]1` showed a half-life of 0.4 h.
In the case of `N#Cc1cccc(-c2ccc(CCC(=O)N3C[C@H](O)C[C@H]3c3nc(-c4cccc(Cl)c4)c[nH]3)cc2)c1`, the half-life is reported as 0.6 h.
In the case of `C[C@@H](c1ccc(-c2ccccc2)cc1)[C@H](NC(=O)C(C)(C)N)C(=O)N1CCC[C@H]1c1nc2cc(Cl)c(Cl)cc2[nH]1`, the half-life is reported as 2.3 h.
In the case of `Cc1cccc2[nH]c([C@@H]3[C@@H]4C[C@@H]4CN3C(=O)COc3ccc(-c4ccccc4)cc3)nc12`, the half-life is reported as 0.6 h.
With `Cn1cc(-c2ccc(C[C@H](NC(=O)C(C)(C)N)C(=O)N3CCC[C@H]3c3nc4cc(Cl)c(Cl)cc4[nH]3)cc2)ccc1=O` the half-life was 2.6 h.
With `CC(C)(Cc1ccc(-c2cccc(Cl)c2Cl)cc1)C(=O)N1CC(F)(F)C[C@H]1c1ncc(-c2cccc(Br)c2)[nH]1` the half-life was 9.6 h.
With `CC(C)(CN)C(=O)N[C@@H](Cc1ccc(-c2ccccc2)cc1)C(=O)N1CCC[C@H]1c1nc2cc(Cl)c(Cl)cc2[nH]1` the half-life was 4.3 h.
For `CC(C)(Cc1ccc(-c2ccccc2)cc1)C(=O)N1CCC[C@H]1c1nc(-c2cccc(F)c2)c[nH]1`, the half-life was 2.3 h.

Test system: Blood
Test: Drug level in C57BL/6NT wild type mouse blood at 100 mg/kg, po
Type: ADME, organism-based
Design: dose 100 mg/kg, route oral
Conditions: in vivo, read-out: Activity
Work on `C[C@@H](c1ccc(-c2ccccc2)cc1)[C@H](NC(=O)C(C)(C)N)C(=O)N1CCC[C@H]1c1nc2cc(Cl)c(Cl)cc2[nH]1` yielded a concentration of 380 nM.

Test system: not listed separately
Test: Oral bioavailability in mouse
Type: ADME, organism-based
Conditions: in vivo
For `COc1ccc(C[C@H](NC(=O)C(C)(C)N)C(=O)N2CC[C@H]2c2nc3cc(Cl)c(Cl)cc3[nH]2)cc1`, the bioavailability was 33%.
Compound `CC(C)(O)C(=O)N[C@@H](Cc1ccc(-c2ccccc2)cc1)C(=O)N1CCC[C@H]1c1ncc(C(C)(C)C)[nH]1` has a bioavailability of 0%.
With `N#Cc1cccc(-c2ccc(CCC(=O)N3C[C@H](O)C[C@H]3c3nc(-c4cccc(Cl)c4)c[nH]3)cc2)c1` the bioavailability was 1%.
`C[C@@H](c1ccc(-c2ccccc2)cc1)[C@H](NC(=O)C(C)(C)N)C(=O)N1CCC[C@H]1c1nc2cc(Cl)c(Cl)cc2[nH]1` gave a bioavailability of 13%.
With `Cc1cccc2[nH]c([C@@H]3[C@@H]4C[C@@H]4CN3C(=O)COc3ccc(-c4ccccc4)cc3)nc12` the bioavailability was 20%.
`Cn1cc(-c2ccc(C[C@H](NC(=O)C(C)(C)N)C(=O)N3CCC[C@H]3c3nc4cc(Cl)c(Cl)cc4[nH]3)cc2)ccc1=O` showed a bioavailability of 0%.
In the case of `CC(C)(Cc1ccc(-c2cccc(Cl)c2Cl)cc1)C(=O)N1CC(F)(F)C[C@H]1c1ncc(-c2cccc(Br)c2)[nH]1`, the bioavailability is reported as 5%.
Work on `CC(C)(CN)C(=O)N[C@@H](Cc1ccc(-c2ccccc2)cc1)C(=O)N1CCC[C@H]1c1nc2cc(Cl)c(Cl)cc2[nH]1` yielded a bioavailability of 0%.
In the case of `CC(C)(Cc1ccc(-c2ccccc2)cc1)C(=O)N1CCC[C@H]1c1nc(-c2cccc(F)c2)c[nH]1`, the bioavailability is reported as 5%.

Test system: Brain
Test: Drug level in C57BL/6NT wild type mouse brain at 100 mg/kg, po
Type: ADME, organism-based
Design: dose 100 mg/kg, route oral
Conditions: in vivo, read-out: Activity
For `C[C@@H](c1ccc(-c2ccccc2)cc1)[C@H](NC(=O)C(C)(C)N)C(=O)N1CCC[C@H]1c1nc2cc(Cl)c(Cl)cc2[nH]1`, the concentration was 50 nM.

Test system: Mus musculus
Test: Antiobesity activity against C57BL/6NT mouse PrCP knock out model assessed as reduction in body weight at 100 mg/kg, po for 5 days
Type: functional
Design: scale not given: the % may be the effect or the level left
Conditions: not given
For `C[C@@H](c1ccc(-c2ccccc2)cc1)[C@H](NC(=O)C(C)(C)N)C(=O)N1CCC[C@H]1c1nc2cc(Cl)c(Cl)cc2[nH]1`, the Activity was 1.1%.
